Laboratory results published in BindingDB's records for patent US12180185 (Hk Inno.N, 2024).

Biological target: Tyrosine-protein kinase JAK1 (Homo sapiens, UniProt P23458)
Test: ADP-Glo Kinase assay
Procedure: An inhibitory effect of the inventive compound on JAK was identified as follows.A control material and a test material were prepared through dilution at each concentration by using DMSO. At the same time, ATP (250 uM) and JAK's substrate (JAK1, IRS-1tide 40 ng/mL) were prepared through dilution in kinase buffer (40 mM Tris-HCl pH 7.5, 20 mM MgCl2, 0.5 mg/mL BSA, 50 uM DTT).A test drug for each concentration, the substrate, the ATP and JAK enzymes were mixed in an eppendorf tube, and then subjected to reaction in an incubator at 30° C. for 40 minutes.ADP-GloFigure US12180185-20241231-P00001 reagent included in ADP-Glo™ Kinase Enzyme System (Promega, USA, V9571) was added to each eppendorf tube, and then subjected to reaction in the incubator at 30° C. for 40 minutes.A kinase detection reagent included in the ADP-Glo™ Kinase Enzyme System was inserted into the eppendorf tube, after which luminescence was measured by using Wallac Victor 2TM with an integration time set to 1 second, such that an inhibitory capacity of the test material on JAKs phosphorylation was analyzed. A concentration of the compound, at which JAK enzyme activity inhibition occurs 50% compared to the control group, was determined as IC50 (nM) of an inhibitor.

Tyrosine-protein kinase JAK1, sequence (P23458 whole entry): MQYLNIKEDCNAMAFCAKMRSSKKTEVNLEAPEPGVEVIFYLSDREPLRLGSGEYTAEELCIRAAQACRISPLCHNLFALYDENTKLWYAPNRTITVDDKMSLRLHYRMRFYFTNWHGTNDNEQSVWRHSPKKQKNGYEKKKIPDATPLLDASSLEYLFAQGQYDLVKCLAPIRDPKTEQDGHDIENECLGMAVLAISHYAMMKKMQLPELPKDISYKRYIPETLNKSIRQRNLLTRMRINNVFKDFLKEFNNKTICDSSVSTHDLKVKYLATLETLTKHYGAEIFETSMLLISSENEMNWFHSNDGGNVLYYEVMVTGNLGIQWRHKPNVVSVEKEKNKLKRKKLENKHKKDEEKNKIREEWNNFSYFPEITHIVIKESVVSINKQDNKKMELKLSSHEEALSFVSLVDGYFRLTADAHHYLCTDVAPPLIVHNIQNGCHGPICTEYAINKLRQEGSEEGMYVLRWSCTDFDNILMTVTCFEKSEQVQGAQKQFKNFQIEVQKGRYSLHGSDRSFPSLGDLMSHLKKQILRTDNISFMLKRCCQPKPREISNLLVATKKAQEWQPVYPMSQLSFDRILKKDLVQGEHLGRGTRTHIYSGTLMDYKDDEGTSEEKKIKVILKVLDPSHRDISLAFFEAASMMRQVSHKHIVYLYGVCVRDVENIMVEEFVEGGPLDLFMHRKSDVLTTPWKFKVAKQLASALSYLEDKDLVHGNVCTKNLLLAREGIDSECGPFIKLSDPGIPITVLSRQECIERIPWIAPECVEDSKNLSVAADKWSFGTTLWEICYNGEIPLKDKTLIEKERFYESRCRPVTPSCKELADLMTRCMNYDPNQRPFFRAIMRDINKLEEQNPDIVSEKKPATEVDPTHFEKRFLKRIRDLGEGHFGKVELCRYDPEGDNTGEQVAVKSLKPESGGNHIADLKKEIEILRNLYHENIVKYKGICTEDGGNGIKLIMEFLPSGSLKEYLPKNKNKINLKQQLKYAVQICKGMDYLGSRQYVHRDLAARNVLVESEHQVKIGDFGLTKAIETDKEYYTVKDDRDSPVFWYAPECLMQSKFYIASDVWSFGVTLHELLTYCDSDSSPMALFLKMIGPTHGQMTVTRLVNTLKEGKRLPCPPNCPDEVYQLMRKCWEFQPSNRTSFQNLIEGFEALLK

IC50: > 1000 nM
Compound: CC(C)=C(C#N)C(=O)Nc1cccc2c(-c3ccnc(NC(=O)C4CC4)c3)n[nH]c12 [US12180185, Example 63]
